The source of these data is paper PMC4568831 (Molecular pharmaceutics, 2015).

Each structure is given as a SMILES string. Read-outs that look alike come from different tables or passages of the source.

The conditions of data set [1]: mice; cited from earlier work.
The conditions of data set [2]: humans; cited from earlier work.
For data set [3] the following is noted: cited from earlier work.
The nature of data set [4]: Measurement of CFZ in tissues, partition ratios after prolonged oral dosing. In kind it is in vivo, mice (male C57Bl6). The note with it: mice, after eight week washout period.
Data set [5] is described as follows: In vitro precipitation / solubilization of CFZ in aqueous media. The format is physicochemical. The settings on record: ~5 M HCl, diprotonated state.

With `CC(C)/N=c1\cc2n(-c3ccc(Cl)cc3)c3ccccc3nc-2cc1Nc1ccc(Cl)cc1` [CFZ, Clofazimine], the “pharmacokinetic half-life t1/2” value in data set [1] is given as 7 days; in data set [2], ~ 70 days. Besides, the half-life result in data set [3] (oral, after an acute dose) was “hours to days”; in data set [3] (upon prolonged oral administration), “weeks to months”. Moreover, the “CFZ mass retained in spleen” value in data set [4] is “exceeded its combined mass retained in the other organs”. For the same compound, the “pH at which CFZ was completely solubilized in aqueous media” value in data set [5] was below 1.
